We go through 11 molecules from patent publication US20250205203A1, “SUBSTITUTED PYRAZOLYL COMPOUNDS AND METHODS OF USE THEREOF” (Chinook Therapeutics Canada, Inc., priority 2020, published 2025).

Bounds are passed on as bounds.

The nature of data set [1]: Liver-targeted tissue distribution profile study in rats. It counts as in vivo, rat. Conditions: PO 10 mg/kg, SD rats. How it is done: Plasma and liver (target organ) concentrations of test compounds were determined in rats following a single per os (PO) administration of the test compounds. Male Sprague Dawley rats (6-8 weeks of age, Charles River Labs) were fasted overnight and a single dose of test compounds (10 mg/kg; as a suspension in 0.5% methyl cellulose) was administered by PO gavage. Rats were then sacrificed at 4 and 24 h after administration of the test compounds, and plasma and liver tissue samples were collected. Liver tissue samples were homogenized in 5 volumes of water:acetonitrile (50/50; v/v) mixture using a bead mill homogenizer. Plasma and liver homogenate samples were processed by protein precipitation using acetonitrile and the concentrations of the test compounds were determined by liquid chromatography-tandem mass spectrometry (SciEx triple quad 5500+ with Exion UPLC).

Data set [2] has as its target T1, human recombinant C-terminal His-tagged LDHA (Homo sapiens (Human), UniProt P00338). As to the kind of experiment: Human LDHA enzyme assay, human serum albumin (HSA) shift assay. It counts as biochemical. Conditions: final concentration 10% HSA. How it is done:
(§1) Compounds were dissolved in DMSO and preincubated with human recombinant C-terminal His-tagged LDHA (0.070 μg/mL) for 10 min at room temperature in assay buffer consisting of 50 mM Tris (pH 7.5) and 100 mM NaCl in black walled, clear bottom, non-binding 96-well plates. Equal volumes of substrate solution containing 100 μM of pyruvate and 100 μM of NADH in assay buffer was added to each well (final concentration 0.035 μg/mL enzyme, 50 μM pyruvate, 50 μM NADH, and 1% DMSO). For human serum albumin (HSA) shift assay, the compounds were preincubated with the enzyme in assay buffer containing 20% HSA before substrate addition (final concentration 10% HSA). The reaction was monitored at 340 nm on a plate reader (Molecular Devices) in kinetic mode for 15 min. The rate of the reaction was determined by plotting absorbance vs time.

The test system of data set [3] is primary mouse hepatocytes. As to the kind of experiment: Primary mouse hepatocyte assay (lactate production). It counts as cell-based. The following applies: wild type C57BL/6 hepatocytes, in presence of pyruvate. How it is done: LDH inhibitors can also be evaluated in an ex vivo assay consisting of primary mouse hepatocytes. Following isolation, viable wild-type murine hepatocytes are incubated with test compound in presence of pyruvate. Compound potency to modulate LDH enzymatic activity is then evaluated by measuring the conversion of pyruvate to lactate by the cells.
Compounds were evaluated in an ex vivo assay consisting of fresh primary mouse hepatocytes. Hepatocytes were isolated from wild type mice (C57BL/6NCrl from Charles River Labs) using a two-step collagenase perfusion technique which involves a sequential perfusion of anesthetized mice with Hanks' balanced salt solution and collagenase. Following isolation, viable wild type hepatocytes are incubated with test compound in presence of pyruvate and compound potency is evaluated by measuring the lactate produced by the cells using liquid chromatography coupled to mass spectrometry. Chromatographic separation was achieved on an XDB-C18 4.6×50 mm column (Agilent, Cat #927975-902) at a flow rate of 1 mL/min. Mobile phase A consisted of 0.1% formic acid in water and mobile phase B consisted of acetonitrile. A gradient program was initiated starting at 5% B which was held for 1 minutes, then ramped from 5% to 95% B over 1 minute. After holding at 95% B for 1 minute, the program changed back to 5% B. The column was equilibrated with 5% B for 1.5 minutes before the next injection. The mass spectrometer was operated in negative mode with electrospray ionization. The following transition along with their collision energy (CE) were used: 89→43 (CE: −16 V) for lactate and 92→45 (CE: −16 V) for ^13C3-Lactate (internal standard).

Data set [4] has as its target T1, human recombinant C-terminal His-tagged LDHA. The data set can be described thus: Human LDHA enzyme assay. The following applies: 50 μM pyruvate, 50 μM NADH, 1% DMSO. It counts as biochemical. How it is done:
Biochemical assays include recombinant human LDH enzymatic assays in which purified recombinant human lactate dehydrogenase A (LDHA) is incubated with test compound, substrate pyruvate and coenzyme […], and its enzymatic activity measured by the formation of NAD upon conversion of pyruvate to lactate.
as §1

The conditions of data set [5]: PH1 patients; cited from earlier work.

With `NS(=O)(=O)c1ccc(Cc2c(-c3ccc(F)c(C#CC4(O)COC4)c3)nn(-c3nc(C(=O)O)cs3)c2CC2CC2)cc1F` [Example 1, 2-(5-(Cyclopropylmethyl)-3-(4-fluoro-3-((3-hydroxyoxetan-3-yl)ethynyl)phenyl)-4-(3-fluoro-4-sulfamoylbenzyl)-1H-pyrazol-1-yl)thiazole-4-carboxylic acid], in data set [1], the “Measured Compound Concentration Liver-4 h” value was “+++ (5 μM≥+++>1 μM)”, the “Measured Compound Concentration Liver-24 h” value is “++ (1 μM≥++>0.25 μM)”, the “Measured Compound Concentration Plasma-4 h” value is given as “+ (0.25 μM≥+>0 μM)” and the “Measured Compound Concentration Plasma-24 h” value was “+ (0.25 μM≥+>0 μM)”. Besides, in data set [2], the IC50 (as a rule, the concentration needed to halve the response being measured) lay within 1 to 10 nM. Also, in data set [3], the IC50 was under 100 nM. Also, in data set [4], the half-maximal inhibitory concentration (IC50) was under 1 nM.

As to `CC(C)(O)C#Cc1cc(-c2nn(-c3nc(C(=O)O)cs3)c(CC3CC3)c2Cc2ccc(S(N)(=O)=O)c(F)c2)ccc1F` [Example 2, 2-(5-(Cyclopropylmethyl)-3-(4-fluoro-3-(3-hydroxy-3-methylbut-1-yn-1-yl)phenyl)-4-(3-fluoro-4-sulfamoylbenzyl)-1H-pyrazol-1-yl)thiazole-4-carboxylic acid], in data set [1], the “Measured Compound Concentration Liver-4 h” value was “+++ (5 μM≥+++>1 μM)”, the “Measured Compound Concentration Liver-24 h” value was “+++ (5 μM≥+++>1 μM)”, the “Measured Compound Concentration Plasma-4 h” value is given as “+ (0.25 μM≥+>0 μM)” and the “Measured Compound Concentration Plasma-24 h” value is “+ (0.25 μM≥+>0 μM)”. For the same molecule, in data set [2], the IC50 was under 1 nM. For the same molecule, the IC50 in data set [3] is under 100 nM. Besides, the half-maximal inhibitory concentration (IC50) in data set [4] is under 1 nM.

With `CC1(C#Cc2cc(-c3nn(-c4nc(C(=O)O)cs4)c(CC4CC4)c3Cc3ccc(S(N)(=O)=O)c(F)c3)ccc2F)COC1` [Example 3, 2-(5-(cyclopropylmethyl)-3-(4-fluoro-3-((3-methyloxetan-3-yl)ethynyl)phenyl)-4-(3-fluoro-4-sulfamoylbenzyl)-1H-pyrazol-1-yl)thiazole-4-carboxylic acid], the IC50 in data set [2] is 1 to 10 nM; in data set [3], under 100 nM; in data set [4] it was under 1 nM.

For `NS(=O)(=O)c1ccc(Cc2c(-c3ccc(F)c(C#CC4(O)CCC4)c3)nn(-c3nc(C(=O)O)cs3)c2CC2CC2)cc1F` [Example 4, 2-(5-(cyclopropylmethyl)-3-(4-fluoro-3-((1-hydroxycyclobutyl)ethynyl)phenyl)-4-(3-fluoro-4-sulfamoylbenzyl)-1H-pyrazol-1-yl)thiazole-4-carboxylic acid], the values for the IC50 in data set [2], in data set [3] and in data set [4] were 1 to 10 nM, under 100 nM and under 1 nM, respectively.

For the molecule `NS(=O)(=O)c1ccc(Cc2c(-c3ccc(F)c(C#CC4(O)CC4)c3)nn(-c3nc(C(=O)O)cs3)c2CC2CC2)cc1F` [Example 5, 2-(5-(cyclopropylmethyl)-3-(4-fluoro-3-((1-hydroxycyclopropl)ethynyl)phenyl)-4-(3-fluoro-4-sulfamoylbenzyl)-1H-pyrazol-1-yl)thiazole-4-carboxylic acid], the half-maximal inhibitory concentration (IC50) in data set [4] was under 1 nM.

With `CC(C)(O)C#Cc1cccc(-c2nn(-c3nc(C(=O)O)cs3)c(CC3CC3)c2Cc2ccc(S(N)(=O)=O)c(F)c2)c1` [Example 6, 2-(5-(cyclopropylmethyl)-4-(3-fluoro-4-sulfamoylbenzyl)-3-(3-(3-hydroxy-3-methylbut-1-yn-1-yl)phenyl)-1H-pyrazol-1-yl)thiazole-4-carboxylic acid], in data set [1], the “Measured Compound Concentration Liver-4 h” value is “++++ (++++>5 μM)”, the “Measured Compound Concentration Liver-24 h” value is on record as “+++ (5 μM≥+++>1 μM)”, the “Measured Compound Concentration Plasma-4 h” value was “+ (0.25 μM≥+>0 μM)” and the “Measured Compound Concentration Plasma-24 h” value was “+ (0.25 μM≥+>0 μM)”. Also, the 50% inhibitory concentration (IC50) in data set [2] lay in the range of 1 to 10 nM. In addition, the half-maximal inhibitory concentration (IC50) in data set [3] is under 100 nM. For the same molecule, the 50% inhibitory concentration (IC50) in data set [4] is under 1 nM.

Turning to `NS(=O)(=O)c1ccc(Cc2c(-c3cccc(C#CC4COC4)c3)nn(-c3nc(C(=O)O)cs3)c2CC2CC2)cc1F` [Example 7, 2-(5-(cyclopropylmethyl)-4-(3-fluoro-4-sulfamoylbenzyl)-3-(3-(oxetan-3-ylethynyl)phenyl)-1H-pyrazol-1-yl)thiazole-4-carboxylic acid], in data set [1], the “Measured Compound Concentration Liver-4 h” value is listed as “++++ (++++>5 μM)”, the “Measured Compound Concentration Liver-24 h” value was “+++ (5 μM≥+++>1 μM)”, the “Measured Compound Concentration Plasma-4 h” value is given as “+ (0.25 μM≥+>0 μM)” and the “Measured Compound Concentration Plasma-24 h” value is recorded as “+ (0.25 μM≥+>0 μM)”. Moreover, the IC50 in data set [2] lay within 1 to 10 nM. Moreover, in data set [3], the IC50 is under 100 nM. Also, the concentration for half-maximal inhibition (IC50) in data set [4] is under 1 nM.

In the case of `CC1(C#Cc2cccc(-c3nn(-c4nc(C(=O)O)cs4)c(CC4CC4)c3Cc3ccc(S(N)(=O)=O)c(F)c3)c2)COC1` [Example 8, 2-(5-(cyclopropylmethyl)-4-(3-fluoro-4-sulfamoylbenzyl)-3-(3-((3-methyloxetan-3-yl)ethynyl)phenyl)-1H-pyrazol-1-yl)thiazole-4-carboxylic acid], the 50% inhibitory concentration (IC50) in data set [2] is 1 to 10 nM; in data set [3], under 100 nM; in data set [4], under 1 nM.

Consider `NS(=O)(=O)c1ccc(Cc2c(-c3cccc(C#CC4(O)COC4)c3)nn(-c3nc(C(=O)O)cs3)c2CC2CC2)cc1F` [Example 9, 2-(5-(cyclopropylmethyl)-4-(3-fluoro-4-sulfamoylbenzyl)-3-(3-((3-hydroxyoxetan-3-yl)ethynyl)phenyl)-1H-pyrazol-1-yl)thiazole-4-carboxylic acid], for which, in data set [1], the “Measured Compound Concentration Liver-4 h” value is given as “+++ (5 μM≥+++>1 μM)”, the “Measured Compound Concentration Liver-24 h” value is “++ (1 μM≥++>0.25 μM)”, the “Measured Compound Concentration Plasma-4 h” value is recorded as “+ (0.25 μM≥+>0 μM)” and the “Measured Compound Concentration Plasma-24 h” value was “+ (0.25 μM≥+>0 μM)”. Besides, in data set [2], the IC50 was 1 to 10 nM. For the same molecule, the 50% inhibitory concentration (IC50) in data set [3] is under 100 nM. The IC50 in data set [4] was under 1 nM.

With `NS(=O)(=O)c1ccc(Cc2c(-c3ccc(F)c(C#CC4CC4)c3)nn(-c3nc(C(=O)O)co3)c2CC2CC2)cc1F` [Example 10, 2-(3-(3-(Cyclopropylethynyl)-4-fluorophenyl)-5-(cyclopropylmethyl)-4-(3-fluoro-4-sulfamoylbenzyl)-1H-pyrazol-1-yl)oxazole-4-carboxylic acid], the IC50 is 1 to 10 nM in data set [2], under 100 nM in data set [3] and under 1 nM in data set [4].

With `Cc1ncc(CO)c(CO)c1O` [Pyridoxine], the lowering urinary oxalate entry in data set [5] is given as “approximately 30%”.
